Measured values from US8574578B2, “Antibodies against PDGFRα to inhibit tumor growth” (ImClone LLC, priority 2006, dated 2013).

Legend:
murine IGF-IR = murine IGF-IR (Mus musculus, UniProt Q60751); assay: Cross-reactivity of A12 with murine IGF-IR; type: binding
LuCaP 23.1 xenograft = assay: IMC-A12 treatment of LuCaP 23.1 intratibial xenografts (PSA, BMD, radiographs); type: in vivo, castrated SCID mice
Procedure: Anti-IGF-IR antibody therapy for bone metastases. The effectiveness of treatment with anti-IGF-IR antibodies on metastatic growth of prostate cancer cells in bone was evaluated using prostate cancer cells injected directly into the tibia of SCID mice. By this method, metastatic tumors are established directly without reliance on chemotaxis dependent invasion from the circulation. A variety of tumor lines are available for establishing bone metastases. These include PC-3, LuCaP35, and LnCaP cells which produce osteolytic lesions and LuCaP 23.1 cells which produce osterblastic lesions.
To evaluate the effectiveness of treatment with IMC-A12, LuCaP 23.1 xenograft tumors were engrafted in SCID mice, and serum PSA levels were measured biweekly to evaluate tumor growth. All animals were castrated two weeks prior to tibial tumor cell engraftment. Administration of IMC-A12 to test mice was begun when serum PSA levels reached 5-10 ng/ml (indicating established tumors). 40 mg/kg IMC-A12 was injected i.p. three times a week for six weeks.
Bone mineral density (BMD) of the tumored tibiae and the contralateral tibiae without tumor was measured by Dual X-ray absorptiometry (PIXImus Lunar densitometer) performed on a 2.5 mm×2.5 mm area at the tumor cell injection site, or the corresponding site of the contralateral tibia at the time of engraftment. Biweekly assessment of lesions was made by serum PSA measurements. All animals were sacrificed when the bone lesions in the control group had recurred after castration based on serum PSA levels (LuCaP 35 >60 ng/ml, ng/ml, LuCaP 23.1 >500 ng/ml), radiographical appearance of the bone lesions or when animals became compromised. One hour prior to sacrifice animals were injected with BrdU to monitor tumor cell proliferation. Radiographs were taken prior to sacrifice (FaxitronX-ray MX-20), and BMD of both tibiae were measured at the time of sacrifice.

[1] = Post-treatment serum levels of A12; type: in vivo, SCID mice
Procedure: Serum levels of A12 were measured in animals that had received docetaxel combined with A12.

LuCaP 35V xenograft [2] = assay: Serum PSA in mice carrying LuCaP 35V xenografts (IMx Total PSA Assay); type: in vivo, castrated SCID mice
Procedure: (§1) All treatments were administered intraperitoneally (ip). Docetaxel was administered once a week. A12 was administered three times a week. […] Animals were weighed twice a week. Blood samples were collected from orbital sinus weekly.

[3] = Overall cytotoxicity of coadministration of docetaxel and IMC-A12; type: in vivo, SCID mice; settings: compared to control tumor-bearing animals
Procedure: as §1
Cytotoxicity of coadministration of docetaxel and IMC-A12 was examined.

[4] = tested on: LuCaP 23.1 prostate cancer cells; assay: IMC-A12 + docetaxel, LuCaP 23.1 tibial bone metastases, six weeks (present-tense example); type: in vivo, castrated SCID mice; settings: weekly PSA, during and after six weeks of treatment
Procedure: SCID mice are castrated 2 weeks prior to tibial tumor injections. Bone metastases are generated by direct injection of LuCaP 23.1 prostate cancer cells into the tibia of the mice, giving rise to osteoblastic lesions. The xenografts express IGF-IR. Serum PSA levels are measured biweekly to evaluate tumor growth. When serum PSA levels reach 5-10 ng/ml indicating established tumor, animals are randomized into four groups.
In two groups, 40 mg/kg of IMC-A12 are injected i.p. three times a week for six weeks with one group receiving IMC-A12+docetaxel 20 mg/kg i.p once a week for 6 weeks and a second group IMC-A12+docetaxel 10 mg i.p. three times a week for 6 weeks. Control groups receive 10 or 20 mg docetaxel i.p. without IMC-A12.
Animals are monitored with weekly PSA measurements. After termination of treatment, animals continue to be monitored with weekly PSA measurements until tumors in the docetaxel only groups show tumor regrowth. […] Reductions in PSA levels are observed to continue, even after termination of treatment at six weeks.
As indicated above, BMD measurements are made at the time of engraftment and at sacrifice, and radiographs are taken just prior to sacrifice.

[5] = tested on: LuCaP 23.1 human prostate tumor; assay: Docetaxel with or without A12, LuCaP 23.1 intratibial xenografts, four weeks; type: in vivo, SCID mice
Procedure: LuCaP 23.1 human prostate tumor bits (20 to 30 mm^3) were mechanically digested. 2-5×10^5 viable LuCaP 23.1 cells were injected into the tibiae of 6-8 wk old SCID mice. 21 mice randomized into three groups were used for the study. After tumor injection, serum PSA was monitored weekly. Treatment started when serum PSA level reached 5-10 ng/ml, an indication of tumor growth. Group 1 received control vehicle saline buffer. Group 2 received 20 mg/kg of docetaxel i.p once a week for 4 weeks. Group 3 received 20 mg/kg of docetaxel once a week and 40 mg/kg of A12 i.p. three times a week for 4 weeks. To determine whether the response to treatment was osteoblastic or osteolytic, BMD was measured by Dexa-scan and x-rays of the animals at the end point of all treatments.

LuCaP 35V xenograft [6] = assay: LuCaP 35V subcutaneous xenograft tumor growth
Procedure: Tumor bits (20 to 30 mm^3) of androgen-independent (AI) LuCaP 35V were implanted subcutaneously (s.c.) into 32 six-week-old castrated SCID mice respectively as previously described (4). […] Group 1 animals received docetaxel treatment at a dose of 20 mg/kg. Group 2 animals received docetaxel treatment at a dose of 10 mg/kg. Group 3 animals received combined treatment of 10 mg/kg docetaxel and 40 mg/kg A12. Group 4 animals received combined treatment of 20 mg/kg docetaxel and 40 mg/kg A12. All treatments were administered intraperitoneally (ip). Docetaxel was administered once a week. A12 was administered three times a week. All animals were treated for four weeks and monitored for additional four weeks before euthanization. Tumors were measured twice weekly and tumor volume was estimated by the formula: volume=L×W^2/2. Following our University of Washington IACUC approved animal protocol, some animals were euthanized at an earlier time when tumor reached a volume of 1000 mm^3 or when animal weight loss exceeded 20% of initial body weight. Animals were weighed twice a week.

LuCaP 35V xenograft [7] = assay: TUNEL / propidium staining flow cytometry of tumor cells at time of sacrifice; type: in vivo, castrated SCID mice; settings: percentage of tumors; for Apoptosis (%): four weeks after treatment termination; for G1 arrest (%) / G2 arrest (%) / Normal cycle (%): time of sacrifice
Procedure: After euthanization, tumors were collected and halved. A portion of the tumors were fixed in 10% neutral buffer formalin (NFB) and embedded in paraffin. Five micron sections were prepared for immunohistochemistry (IHC) staining. The remaining portion of the tumors was separated into single cells mechanically by mincing and filtering through 70 μm nylon sieves.
The combined in vivo effect of docetaxel and A12 treatment on cell cycle and cell survival at the experimental end point was measured by terminal deoxynucleotidyl transferase-mediated nick end labeling (TUNEL) assay and propidium (PI) staining using the Apop-Direct kit (BD BioScience) as previously described. Briefly, 1×10^6 cells from the single-cell suspension were fixed with 10% neutral buffer formalin (NBF) followed by 70% ethanol alcohol at −20° C. for 30 min. After several washes, cells were permeabilized with 0.1% Triton X-100 and incubated with FITC-conjugated dUTP and terminal deoxynucleotidyl transferase enzyme (TdT) at 37° C. for 1 h, followed by an incubation with PI/RNase buffer (100 μg/ml of PI, 50 μg/ml RNase) at room temperature for 60 min. Samples were analyzed by flow cytometry using a BD FACscan. Data were analyzed with CellQuest^PRO software.

[8] = tested on: Akt phosphorylation in PC3-ML cells; assay: Akt phosphorylation in PC3-ML cells (Western blot); type: cell-based, human; settings: 20 μM AG-1296
Procedure: Bone marrow samples from normal male donors (ages 18-45) were supplied by Cambrex (Poietics™ Donor Program). Samples were centrifuged at 1,500 rpm in order to separate the soluble and cellular phases. The supernatant was filtered using 0.8 μm and 0.22 μm filters in succession. 50 μl of bone marrow aspirate was administered to cells in 1 ml of medium (1:20 final dilution).
For experiments performed in the presence of serum, cells were cultured in DMEM supplemented with 10% FBS and 50 μg/ml gentamycin for 24 hours prior to exposure to bone marrow. For experiments in the absence of serum (starved cells), cells were washed twice with PBS, the growth medium was replaced with serum-free DMEM, and the cells were incubated for 4 hours prior to exposure to bone marrow preparations. When used, AG-1296, a specific inhibitor of PDGF receptors (Rice et al., 1999, Amer. J. Path. 155, 213-21) was added to cultures 30 min. prior to exposure to bone marrowaspirate. IMC-3G3 antibodies were administered as described at pre-treatment times as stated below.

[9] = 40 mg/kg IMC-A12 i.p. three times a week for six weeks, at sacrifice

Chain of murine IGF-IR (Q60751 31-1373): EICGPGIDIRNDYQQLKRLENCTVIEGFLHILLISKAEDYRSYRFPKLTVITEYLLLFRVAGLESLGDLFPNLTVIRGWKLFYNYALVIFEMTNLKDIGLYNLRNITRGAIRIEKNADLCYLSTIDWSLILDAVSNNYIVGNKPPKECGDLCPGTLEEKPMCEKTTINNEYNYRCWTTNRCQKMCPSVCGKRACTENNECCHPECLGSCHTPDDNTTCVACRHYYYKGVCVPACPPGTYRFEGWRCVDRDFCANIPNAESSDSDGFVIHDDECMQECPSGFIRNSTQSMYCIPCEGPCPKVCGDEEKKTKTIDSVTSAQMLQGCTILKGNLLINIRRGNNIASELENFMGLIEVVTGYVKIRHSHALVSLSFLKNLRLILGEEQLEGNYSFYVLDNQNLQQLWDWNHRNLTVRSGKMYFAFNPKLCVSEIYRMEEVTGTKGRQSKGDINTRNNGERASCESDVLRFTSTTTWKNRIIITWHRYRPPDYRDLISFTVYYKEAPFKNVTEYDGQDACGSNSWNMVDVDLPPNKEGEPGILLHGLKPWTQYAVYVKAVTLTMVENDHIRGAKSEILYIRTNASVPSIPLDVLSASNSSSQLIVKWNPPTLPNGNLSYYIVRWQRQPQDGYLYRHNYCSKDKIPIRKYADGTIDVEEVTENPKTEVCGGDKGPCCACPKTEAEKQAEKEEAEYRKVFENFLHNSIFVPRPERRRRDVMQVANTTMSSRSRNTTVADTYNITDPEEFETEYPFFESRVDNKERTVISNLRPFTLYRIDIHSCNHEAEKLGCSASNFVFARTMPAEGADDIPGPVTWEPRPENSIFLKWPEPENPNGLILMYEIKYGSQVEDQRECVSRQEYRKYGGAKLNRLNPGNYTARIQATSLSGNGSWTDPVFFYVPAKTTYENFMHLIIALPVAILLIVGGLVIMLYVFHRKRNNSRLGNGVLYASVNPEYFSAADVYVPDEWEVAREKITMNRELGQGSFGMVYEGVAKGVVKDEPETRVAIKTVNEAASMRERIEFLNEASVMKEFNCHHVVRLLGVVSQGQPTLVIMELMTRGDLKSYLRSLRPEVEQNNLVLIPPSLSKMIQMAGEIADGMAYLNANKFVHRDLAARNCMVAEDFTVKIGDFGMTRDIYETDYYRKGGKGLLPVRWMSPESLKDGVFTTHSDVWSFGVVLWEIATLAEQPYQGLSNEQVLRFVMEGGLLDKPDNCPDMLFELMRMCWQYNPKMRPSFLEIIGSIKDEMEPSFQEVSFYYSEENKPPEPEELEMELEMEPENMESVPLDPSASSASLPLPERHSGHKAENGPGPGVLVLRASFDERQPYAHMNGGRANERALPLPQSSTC

With “IMC-A12: human IgG1 anti-IGF-IR antibody; heavy chain variable domain SEQ ID NO:41, light chain variable domain SEQ ID NO:51” as the molecule, how does the “cross-reactivity with murine IGF-IR” value (murine IGF-IR) read?
The value was “greater than 95%”.

What about the “loss of bone density (osteoporosis), non-tumored legs” value (LuCaP 23.1 xenograft; 40 mg/kg IMC-A12) of the same molecule?
Its value is “did not cause a loss of bone density”.

And the “Bone mineral density (BMD), Non-tumored leg, Mean” value (LuCaP 23.1 xenograft; [9])?
The value was 0.045.

And the “Bone mineral density (BMD), Tumored Leg, Mean” value (LuCaP 23.1 xenograft; [9])?
The value was “significantly reduced”.

And the “Bone mineral density (BMD), Tumored Leg, Mean” value (LuCaP 23.1 xenograft; 40 mg/kg IMC-A12 i.p. three times a week for six weeks, at sacrifice, listed as A12)?
Its value is 0.060.

And the “Serum PSA levels” value (LuCaP 23.1 xenograft; 40 mg/kg IMC-A12 vs untreated)?
The value was “significantly lower”.

What about the “tumor progression on radiographs” value (LuCaP 23.1 xenograft; 40 mg/kg IMC-A12 vs untreated) of the same molecule?
Its value is “significantly reduced or prevented”.

What about the “serum A12 level” value ([1]; four weeks after treatment cessation) of the same molecule?
The value was “very low level”.

And the “decline of serum A12 levels” value ([1]; two weeks after treatment cessation, animals received docetaxel combined with A12)?
Its value is 100 fold.

With `CC(=O)O[C@@]12CO[C@@H]1C[C@H](O)[C@@]1(C)C(=O)[C@H](O)C3=C(C)[C@@H](OC(=O)[C@H](O)[C@@H](NC(=O)OC(C)(C)C)c4ccccc4)C[C@@](O)([C@@H](OC(=O)c4ccccc4)[C@H]21)C3(C)C` [docetaxel] as the molecule, how does the “serum PSA level during the four-week treatment” value (LuCaP 35V xenograft [2]; A12 + docetaxel, or 20 mg/kg docetaxel alone) read?
The value was “no significant change”.

And the “serum PSA level after treatment termination” value (LuCaP 35V xenograft [2]; mouse, in vivo)?
Its value is “increased”.

What about the “daily activity or behavior” value [3] of the same molecule?
The value was “no abnormal daily activity or behavior changes”.

And the PSA levels [4]?
Its PSA levels is “rise”.

What about the “LuCaP 23.1 tumor growth as reflected by serum PSA levels during treatment” value ([5]; docetaxel 20 mg/kg once a week, A12 40 mg/kg three times a week, 4 weeks) of the same molecule?
Its value is “significantly inhibited”.

And the “serum PSA after treatment cessation” value ([5]; docetaxel 20 mg/kg, A12 40 mg/kg)?
The value was “began to increase”.

And the “average bone density (mean±SEM)” value ([5]; week five, docetaxel 20 mg/kg, A12 40 mg/kg)?
Its value is 0.09±0.02.

What about the “rate of tumor volume increase in the four weeks following treatment termination” value (LuCaP 35V xenograft [6]; docetaxel 20 mg/kg alone) of the same molecule?
The value was 27.0±16.1 mm^3/week.

And the “tumor volume during the four-week treatment period” value (LuCaP 35V xenograft [6]; docetaxel 20 mg/kg with or without combined A12)?
The value was “tumor volume did not increase”.

And the “tumor growth rate during treatment” value (LuCaP 35V xenograft [6]; four-week ip treatment, A12 alone 40 μg/kg as printed, docetaxel 10 mg/kg, docetaxel 10 mg/kg + A12)?
The value was 29.6±6.1 mm^3/week.

What about the “Apoptosis (%)” value (LuCaP 35V xenograft [7]; docetaxel 10 mg/kg groups) of the same molecule?
The value was “No apoptosis”.

What about the “Apoptosis (%)” value (LuCaP 35V xenograft [7]; docetaxel 10 mg/kg groups, listed as Doc (10)) of the same molecule?
Its value is 0%.

And the “G1 arrest (%)” value (LuCaP 35V xenograft [7]; docetaxel 10 mg/kg groups)?
The value was 0%.

What about the “G2 arrest (%)” value (LuCaP 35V xenograft [7]; docetaxel 10 mg/kg groups) of the same molecule?
Its value is 12%.

And the “Normal cycle (%)” value (LuCaP 35V xenograft [7]; docetaxel 10 mg/kg groups)?
The value was 88%.

And the “Apoptosis (%)” value (LuCaP 35V xenograft [7]; docetaxel 20 mg/kg groups)?
Its value is “No apoptosis”.

And the “Apoptosis (%)” value (LuCaP 35V xenograft [7]; docetaxel 20 mg/kg groups, listed as Doc (20))?
The value was 0%.

And the “G1 arrest (%)” value (LuCaP 35V xenograft [7]; docetaxel 20 mg/kg groups)?
The value was 0%.

What about the “G2 arrest (%)” value (LuCaP 35V xenograft [7]; docetaxel 20 mg/kg groups) of the same molecule?
Its value is 0%.

What about the “Normal cycle (%)” value (LuCaP 35V xenograft [7]; docetaxel 20 mg/kg groups) of the same molecule?
Its value is 100%.

For `COc1cc2ncc(-c3ccccc3)nc2cc1OC` [AG-1296, reference compound], which “inhibition of bone marrow aspirate induced Akt activation” value [8] is on record?
Its value is “more than 40%”.

And the “inhibition of PDGF-BB induced Akt activation” value ([8]; 30 ng/ml PDGF-BB)?
Its value is “completely inhibits”.
